US11845770B2, “Ascaroside derivatives and methods of use” (California Institute of Technology, priority 2019, dated 2023)
Entries after “also recorded” stand apart in the source; their conditions may differ.

Key:
[1] = test system: EPC2 human esophageal keratinocytes; experiment: Stimulation of EPC2-hTERT human esophageal keratinocytes with Poly(I:C); format: cell-based; details: 24 hours, increasing concentrations
Procedure: EPC2-hTERT (EPC2) cells were maintained in supplemented keratinocyte serum-free medium (KSFM) with 0.09 mM calcium chloride containing epidermal growth factor (5 ng/mL), bovine pituitary extract ([…]), penicillin (100 units/mL), and streptomycin ([…]) (ThermoFisher #17005042) at 37° C. with 5% (v/v) CO2. EPC2 cells were seeded in 12-well plates at 0.55×10^6 cells per well in supplemented KSFM at 37° C. with 5% (v/v) CO2 and after 6 hours the old media is removed and changed with fresh media. After overnight incubation, the old media is changed to supplemented KSFM containing 1.8 mM calcium chloride and incubated for 72 hours at 37° C. with 5% (v/v) CO2. After the old media is removed and fresh supplemented KSFM containing 1.8 mM calcium chloride is added, the cells are pre-treated with different concentrations of compounds (0, 1, 10, 100, 500, 1000 μM) for 1 hour prior to stimulation. To stimulate the cells, Poly (I:C) (Tocris #4287) is added to the wells at […] concentration without removing the media and incubated for 24 hours at 37° C. with 5% (v/v) CO2. Supernatants are collected in Eppendorf tubes, centrifuged in a microfuge at maximum speed for 10 minutes at 4° C., and the centrifuged supernatants stored at −80° C. until quantitative detection assays are performed. Human Interleukin-6 (IL-6), Monocyte Chemoattractant Protein-1 (MCP-1), and Thymic stromal lymphopoietin (TSLP) released from supernatants collected post stimulation were measured using the AlphaLISA detection kit for human IL-6, MCP-1, and TSLP, respectively.

[2] = test system: THP1 human macrophage cells; experiment: Stimulation of THP-1 cells, IL-6 at 6 or 36 hours post stimulation; format: cell-based; details: THP1-derived macrophages, IFNγ + LPS, 0.1 to 500 μM, FIG. 9
Procedure: Human immortalized monocytic THP-1 cells were maintained in phenol red free RPMI 1640 medium containing 10% (v/v) fetal bovine serum (FBS), 2 mM L-glutamine, penicillin (100 units/mL), streptomycin (100 μg/mL), amphotericin B (2.5 μg/mL), and 50 μM beta-mercaptoethanol (BME) at 37° C. with 5% (v/v) CO2. THP-1 cells were seeded in 1 mL of THP-1 medium (cell culture medium containing 10% (v/v) FBS, 2 mM L-glutamine, penicillin (100 units/mL), streptomycin (100 μg/mL), amphotericin B ([…]), and 50 μM BME)/well at a density of 1×10^6 cells/mL in six-well plates. Cells were differentiated by adding 10, 50, or 100 nM phorbol 12-myristate 13-acetate (PMA) to each well before incubating cells for 5.5 h at 37° C. with 5% (v/v) CO2. Without removing the media, different concentrations (either 0, 0.1, 1.0, 10, 100, 200, or 500 μM) of the compound were added to each well. Cells were stimulated, within 30 min by adding 20 ng/mL interferon gamma (IFNγ) and 100 ng/mL lipopolysaccharide (LPS) to each well. Following stimulation, the THP-1 cells were incubated for 6 or 36 hours at 37° C. with 5% (v/v) CO2. Supernatant was collected and stored at −80° C. until use.
IL-6 released from supernatants collected at 6 or 36 hours post stimulation with IFNγ and LPS were measured using the AlphaLISA Human IL-6 detection kit.

[3] = Stability in hepatocytes (mouse); format: in vitro ADME; details: cryopreserved mouse hepatocytes (suspension)
Procedure: 10 mM of 1 was provided as a 1000× stock solution in dimethylsulfoxide (DMSO), and the stock solution was diluted to 1 mM with DMSO in 96-well plates. 30 mM of positive compounds (7-ethoxycoumarin and 7-hydroxycoumarin) were provided as a 1000× stock solution in DMSO, and the stock solution was diluted to 3 mM with DMSO in 96-well plates. 20 μL of 1000× stock solution of each compound were pipetted and was mixed with 380 μL of 45% MeOH/H2O to obtain 50 μM of 1 and 150 μM of the positive control compound solutions to form 50× intermediate solutions. 20 μL of 50× intermediate solution of each compound were pipetted and was mixed with […] of pre-warmed incubation medium to obtain 5 μM of 1 and 15 μM of the positive control compound solutions to form 5× working solutions. The incubation medium was Williams' Medium E (no phenol red) containing 2 mM L-glutamine and 25 mM HEPES. 10 μL of 5× working solutions of each compound were pipetted into appropriate wells in a 96-well plate for time points of 0 minutes, 15 minutes, 30 minutes, 60 minutes, and 90 minutes in duplicates. The plates with compounds were kept warm in an incubator at 37° C.
A cell suspension was prepared by thawing cryopreserved cells, isolating the cells, and suspending the cells in thawing medium. […]
The remaining percentage of 1 after incubation was calculated according to the following equation. […]

SMILES	percent inhibition relative to Stimulated of TSLP expression ([1]; FIG. 19A)	percent inhibition relative to Stimulated of IL-6 expression ([1]; FIG. 19B)	percent inhibition relative to Stimulated of MCP-1 expression ([1]; FIG. 19C)	percent inhibition relative to Control of IL-6 levels secreted [2]	half-life at 1 µM [3]
C[C@H](CC/C=C/C(=O)OC(C)(C)C)O[C@@H]1O[C@@H](C)[C@H](O)C[C@H]1O [Compound 1, tert-butyl (2E,6R)-6-{[(2R,3R,5R,6S)-3,5-dihydroxy-6-methyloxan-2-yl]oxy}hept-2-enoate]	statistically significant inhibition; also recorded: robust blocking	inhibited IL-6 expression in statistically significant, dose-dependent manner	inhibited MCP-1 expression in statistically significant, dose-dependent manner	inhibited IL-6 expression in statistically significant, dose-dependent manner	–
C[C@H](CC/C=C/C(=O)O)O[C@@H]1O[C@@H](C)[C@H](O)C[C@H]1O [ascr #7, reference compound]	–	–	–	–	> 3.61 h
